pIC50: −log10 of the molar value. Converted amounts (≈) assume the structure as drawn. The source made the active and inactive calls. The rule behind the calls is not given here.
Tests used:
[1] = biological target: T1, Phospholipase A2, membrane associated (Homo sapiens, UniProt P14555); assay: (§1) Inhibition of recombinant sPLA2-2A (unknown origin) using 1-palmitoyl-2-oleoyl-sn-glycero-3-phosphocholine as substrate preincubated for 10 mins followed by substrate addition measured after 60 mins by colorimetric method
T1 sequence (P14555 whole entry): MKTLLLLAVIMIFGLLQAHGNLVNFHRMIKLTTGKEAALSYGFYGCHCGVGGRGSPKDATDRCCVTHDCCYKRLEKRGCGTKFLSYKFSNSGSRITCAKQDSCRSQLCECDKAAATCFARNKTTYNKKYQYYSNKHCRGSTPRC

[2] = biological target: T2, Secretory phospholipase A2 (Homo sapiens) (UniProt Q5R387+Q9NZK7+P14555+Q9BZM2+Q9UNK4+P39877+O15496+P04054+Q9NZ20+Q9BZM1+Q9BX93); assay: Inhibition of sPLA2 in human plasma using 1-Hexadecanoyl-2-(1-pyrenedecanoyl)-sn-glycero-3-phosphomethanol as substrate preincubated for 10 mins followed by substrate addition measured after 90 mins by fluorescence assay; format: cell-free
[3] = Inhibition of recombinant sPLA2-5 (unknown origin) using 1-palmitoyl-2-oleoyl-sn-glycero-3-phosphocholine as substrate preincubated for 10 mins followed by substrate addition measured after 60 mins by colorimetric method; design: species or system Homo sapiens
[4] = biological target: T3, Group 10 secretory phospholipase A2 (Homo sapiens, UniProt O15496); assay: Inhibition of recombinant sPLA2-10 (unknown origin) using 1-palmitoyl-2-oleoyl-sn-glycero-3-phosphocholine as substrate preincubated for 10 mins followed by substrate addition measured after 60 mins by colorimetric method
T3 sequence (O15496 whole entry): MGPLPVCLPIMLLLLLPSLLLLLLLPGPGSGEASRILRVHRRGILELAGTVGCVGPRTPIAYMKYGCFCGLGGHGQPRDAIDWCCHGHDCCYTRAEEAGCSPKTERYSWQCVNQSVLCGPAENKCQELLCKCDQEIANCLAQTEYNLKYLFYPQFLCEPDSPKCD

[5] = Intrinsic clearance in human hepatocytes at 1 uM assessed per million cells measured up to 60 mins; format: ADME, cell-based, Hepatocyte; settings: 1 h
[6] = biological target: Solute carrier organic anion transporter family member 1B1 (Homo sapiens, UniProt Q9Y6L6); assay: Inhibition of human OATP1B1 expressed in HEK293 cells assessed as reduction in […] uptake at 25 uM; format: cell-based; settings: hek293, 25 µM
Chain of Solute carrier organic anion transporter family member 1B1 (Q9Y6L6 whole entry): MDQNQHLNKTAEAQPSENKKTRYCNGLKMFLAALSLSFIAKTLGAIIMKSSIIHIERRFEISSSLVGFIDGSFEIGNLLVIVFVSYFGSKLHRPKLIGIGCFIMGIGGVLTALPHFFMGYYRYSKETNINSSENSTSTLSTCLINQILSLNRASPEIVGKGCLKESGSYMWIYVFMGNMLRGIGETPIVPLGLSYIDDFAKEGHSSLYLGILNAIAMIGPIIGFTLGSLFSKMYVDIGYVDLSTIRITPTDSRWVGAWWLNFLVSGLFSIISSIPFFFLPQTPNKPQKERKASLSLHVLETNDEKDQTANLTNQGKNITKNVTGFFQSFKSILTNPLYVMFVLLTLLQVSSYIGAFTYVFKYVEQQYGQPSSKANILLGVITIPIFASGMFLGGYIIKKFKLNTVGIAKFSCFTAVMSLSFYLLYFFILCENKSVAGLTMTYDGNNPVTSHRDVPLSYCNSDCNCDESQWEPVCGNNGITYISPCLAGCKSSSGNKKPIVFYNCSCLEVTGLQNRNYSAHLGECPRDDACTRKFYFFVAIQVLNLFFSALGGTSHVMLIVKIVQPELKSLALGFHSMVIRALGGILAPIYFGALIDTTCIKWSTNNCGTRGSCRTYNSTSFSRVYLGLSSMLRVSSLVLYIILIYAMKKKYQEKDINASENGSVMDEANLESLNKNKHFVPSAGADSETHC

[7] = biological target: Phospholipase A2, membrane associated (Homo sapiens) (UniProt P14555); assay: as §1
[8] = Unbound fraction in human plasma; format: ADME, cell-free
Homo sapiens = species: Homo sapiens; assay: Inhibition of recombinant sPLA2-5 (unknown origin) at 25 uM using 1-palmitoyl-2-oleoyl-sn-glycero-3-phosphocholine as substrate preincubated for 10 mins followed by substrate addition measured after 60 mins by colorimetric method
[9] = Solubility of compound in pH 7.4 DMSO/HBSS after 24 hrs by LC-UV/MS analysis; format: physicochemical
[10] = Apparent permeability from apical to basolateral side in human Caco2 cells at pH 6.5; format: ADME, cell-based; settings: caco-2, pH 6.5
[11] = biological target: Voltage-gated inwardly rectifying potassium channel KCNH2 (Homo sapiens, UniProt Q12809); assay: Inhibition of human ERG expressed in CHO cells by patch clamp assay; format: cell-based
Chain of Voltage-gated inwardly rectifying potassium channel KCNH2 (Q12809 whole entry): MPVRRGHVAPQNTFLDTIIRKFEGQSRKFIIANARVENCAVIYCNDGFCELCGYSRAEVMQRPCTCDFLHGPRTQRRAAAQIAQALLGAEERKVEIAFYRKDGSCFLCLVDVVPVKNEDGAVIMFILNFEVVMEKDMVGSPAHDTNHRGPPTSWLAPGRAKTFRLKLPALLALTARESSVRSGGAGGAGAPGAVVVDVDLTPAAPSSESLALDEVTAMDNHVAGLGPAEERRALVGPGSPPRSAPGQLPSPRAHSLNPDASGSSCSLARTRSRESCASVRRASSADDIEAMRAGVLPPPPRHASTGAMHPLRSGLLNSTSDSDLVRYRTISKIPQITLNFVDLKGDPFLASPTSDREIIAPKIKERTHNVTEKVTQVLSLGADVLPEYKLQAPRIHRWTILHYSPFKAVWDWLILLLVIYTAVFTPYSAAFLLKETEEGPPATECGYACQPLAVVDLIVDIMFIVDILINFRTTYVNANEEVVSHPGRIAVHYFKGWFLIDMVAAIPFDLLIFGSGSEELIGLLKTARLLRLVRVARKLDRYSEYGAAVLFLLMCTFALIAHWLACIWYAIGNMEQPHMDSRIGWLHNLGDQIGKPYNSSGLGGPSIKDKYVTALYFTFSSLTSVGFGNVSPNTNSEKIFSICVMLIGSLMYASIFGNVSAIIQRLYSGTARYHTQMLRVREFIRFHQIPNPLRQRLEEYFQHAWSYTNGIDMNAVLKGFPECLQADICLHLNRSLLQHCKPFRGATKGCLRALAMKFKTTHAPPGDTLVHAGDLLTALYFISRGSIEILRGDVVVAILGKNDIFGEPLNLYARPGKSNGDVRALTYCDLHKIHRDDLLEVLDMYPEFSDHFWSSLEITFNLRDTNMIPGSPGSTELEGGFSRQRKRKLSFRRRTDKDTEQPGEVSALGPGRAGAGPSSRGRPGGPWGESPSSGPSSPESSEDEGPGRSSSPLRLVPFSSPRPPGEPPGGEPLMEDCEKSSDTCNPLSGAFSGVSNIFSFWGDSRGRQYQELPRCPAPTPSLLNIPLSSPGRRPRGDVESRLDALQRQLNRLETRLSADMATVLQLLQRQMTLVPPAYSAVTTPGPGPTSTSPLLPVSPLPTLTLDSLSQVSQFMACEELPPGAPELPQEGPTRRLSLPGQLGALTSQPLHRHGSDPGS

[12] = biological target: Sodium channel protein type 5 subunit alpha (Homo sapiens, UniProt Q14524); assay: Inhibition of human Nav1.5 expressed in CHO cells by patch clamp assay; format: cell-based
[13] = Inhibition of human IKs channel expressed in CHO cells by patch clamp assay; format: cell-based
[14] = biological target: A-type voltage-gated potassium channel KCND3 (Homo sapiens, UniProt Q9UK17); assay: Inhibition of human Kv4.3 expressed in CHO cells by patch clamp assay; format: cell-based
Chain of A-type voltage-gated potassium channel KCND3 (Q9UK17 whole entry): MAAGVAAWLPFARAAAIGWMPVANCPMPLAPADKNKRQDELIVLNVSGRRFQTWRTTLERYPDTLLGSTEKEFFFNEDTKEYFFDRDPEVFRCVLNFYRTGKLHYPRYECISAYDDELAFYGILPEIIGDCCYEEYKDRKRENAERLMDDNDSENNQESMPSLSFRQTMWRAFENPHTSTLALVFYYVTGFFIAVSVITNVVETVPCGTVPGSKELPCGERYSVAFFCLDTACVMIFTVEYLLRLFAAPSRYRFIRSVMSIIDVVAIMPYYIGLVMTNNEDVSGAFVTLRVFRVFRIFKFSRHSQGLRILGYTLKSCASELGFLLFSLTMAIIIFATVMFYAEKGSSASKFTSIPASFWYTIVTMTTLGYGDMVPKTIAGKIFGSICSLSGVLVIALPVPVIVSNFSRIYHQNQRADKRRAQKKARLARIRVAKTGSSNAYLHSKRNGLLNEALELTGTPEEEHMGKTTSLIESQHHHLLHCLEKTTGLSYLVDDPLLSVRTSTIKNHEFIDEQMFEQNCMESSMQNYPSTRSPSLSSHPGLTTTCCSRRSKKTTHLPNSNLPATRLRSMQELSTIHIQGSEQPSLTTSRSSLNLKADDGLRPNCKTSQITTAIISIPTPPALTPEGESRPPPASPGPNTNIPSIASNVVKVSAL

[15] = biological target: Voltage-dependent T-type calcium channel subunit alpha-1H (Homo sapiens, UniProt O95180); assay: Inhibition of human Cav3.2 expressed in CHO cells by patch clamp assay; format: cell-based
[16] = biological target: Voltage-dependent L-type calcium channel subunit alpha-1C (Homo sapiens, UniProt Q13936); assay: Inhibition of human Cav1.2 expressed in CHO cells by patch clamp assay; format: cell-based
Cytochrome P450 1A2 = Cytochrome P450 1A2 (Homo sapiens, UniProt P05177); assay: Inhibition of human recombinant CYP1A2; format: ADME
Chain of Cytochrome P450 1A2 (P05177 whole entry): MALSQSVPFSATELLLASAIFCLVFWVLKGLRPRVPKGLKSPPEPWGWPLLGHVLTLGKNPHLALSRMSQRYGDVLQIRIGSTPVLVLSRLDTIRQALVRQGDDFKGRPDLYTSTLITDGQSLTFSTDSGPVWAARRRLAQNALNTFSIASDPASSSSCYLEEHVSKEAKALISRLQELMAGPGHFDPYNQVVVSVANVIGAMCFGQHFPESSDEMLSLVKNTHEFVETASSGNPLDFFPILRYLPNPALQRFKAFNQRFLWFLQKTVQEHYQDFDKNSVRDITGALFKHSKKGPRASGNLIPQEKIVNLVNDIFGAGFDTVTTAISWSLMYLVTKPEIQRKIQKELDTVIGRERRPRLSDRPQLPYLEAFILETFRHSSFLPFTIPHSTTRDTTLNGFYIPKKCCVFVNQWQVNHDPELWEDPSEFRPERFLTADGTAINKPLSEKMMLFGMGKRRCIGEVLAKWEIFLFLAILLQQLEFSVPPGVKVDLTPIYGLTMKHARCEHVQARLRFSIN

Cytochrome P450 2C8 = Cytochrome P450 2C8 (Homo sapiens, UniProt P10632); assay: Inhibition of human recombinant CYP2C8; format: ADME
Chain of Cytochrome P450 2C8 (P10632 whole entry): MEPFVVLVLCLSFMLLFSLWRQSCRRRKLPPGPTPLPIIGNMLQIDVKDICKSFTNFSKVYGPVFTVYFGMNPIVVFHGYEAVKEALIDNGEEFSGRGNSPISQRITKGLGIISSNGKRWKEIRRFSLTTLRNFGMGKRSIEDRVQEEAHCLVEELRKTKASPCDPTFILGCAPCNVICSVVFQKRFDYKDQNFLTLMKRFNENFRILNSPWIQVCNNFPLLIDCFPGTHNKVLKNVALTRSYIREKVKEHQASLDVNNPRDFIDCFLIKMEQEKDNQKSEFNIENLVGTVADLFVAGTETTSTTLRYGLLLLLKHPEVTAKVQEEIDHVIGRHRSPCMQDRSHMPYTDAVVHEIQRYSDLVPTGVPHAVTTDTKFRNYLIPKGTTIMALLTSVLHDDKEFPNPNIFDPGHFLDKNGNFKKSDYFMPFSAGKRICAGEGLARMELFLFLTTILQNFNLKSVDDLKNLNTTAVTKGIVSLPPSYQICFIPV

Cytochrome P450 3A4 = Cytochrome P450 3A4 (Homo sapiens, UniProt P08684); assay: Inhibition of human recombinant CYP3A4; format: ADME
Chain of Cytochrome P450 3A4 (P08684 whole entry): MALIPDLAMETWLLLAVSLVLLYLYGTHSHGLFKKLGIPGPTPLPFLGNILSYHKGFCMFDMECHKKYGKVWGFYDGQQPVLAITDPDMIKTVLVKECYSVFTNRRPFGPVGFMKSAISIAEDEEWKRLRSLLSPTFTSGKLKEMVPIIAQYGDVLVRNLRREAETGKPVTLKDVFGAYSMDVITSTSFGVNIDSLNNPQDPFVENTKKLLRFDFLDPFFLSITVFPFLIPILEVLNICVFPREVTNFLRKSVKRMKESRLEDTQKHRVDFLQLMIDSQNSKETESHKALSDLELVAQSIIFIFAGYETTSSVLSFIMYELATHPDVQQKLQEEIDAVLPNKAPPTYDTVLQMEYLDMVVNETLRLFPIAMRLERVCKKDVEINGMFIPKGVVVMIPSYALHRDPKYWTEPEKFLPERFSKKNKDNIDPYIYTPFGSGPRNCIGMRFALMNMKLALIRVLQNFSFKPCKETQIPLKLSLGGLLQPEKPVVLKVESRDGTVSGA

Cytochrome P450 2C9 = Cytochrome P450 2C9 (Homo sapiens, UniProt P11712); assay: Inhibition of human recombinant CYP2C9; format: ADME
Chain of Cytochrome P450 2C9 (P11712 whole entry): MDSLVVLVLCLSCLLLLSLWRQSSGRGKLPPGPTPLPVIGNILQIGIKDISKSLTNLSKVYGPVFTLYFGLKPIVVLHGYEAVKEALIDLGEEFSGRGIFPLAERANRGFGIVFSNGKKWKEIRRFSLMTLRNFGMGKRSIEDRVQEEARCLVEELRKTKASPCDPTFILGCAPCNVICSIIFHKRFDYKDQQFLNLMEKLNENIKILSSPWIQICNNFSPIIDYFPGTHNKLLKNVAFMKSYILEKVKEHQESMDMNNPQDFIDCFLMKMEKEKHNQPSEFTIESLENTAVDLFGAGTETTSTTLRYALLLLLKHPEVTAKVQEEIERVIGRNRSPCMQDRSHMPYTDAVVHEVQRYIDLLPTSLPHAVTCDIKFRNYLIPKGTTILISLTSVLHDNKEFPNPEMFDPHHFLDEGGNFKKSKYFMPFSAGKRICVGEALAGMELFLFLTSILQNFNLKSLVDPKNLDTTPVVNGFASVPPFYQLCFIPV

Cytochrome P450 2C19 = Cytochrome P450 2C19 (Homo sapiens, UniProt P33261); assay: Inhibition of human recombinant CYP2C19; format: ADME
Chain of Cytochrome P450 2C19 (P33261 whole entry): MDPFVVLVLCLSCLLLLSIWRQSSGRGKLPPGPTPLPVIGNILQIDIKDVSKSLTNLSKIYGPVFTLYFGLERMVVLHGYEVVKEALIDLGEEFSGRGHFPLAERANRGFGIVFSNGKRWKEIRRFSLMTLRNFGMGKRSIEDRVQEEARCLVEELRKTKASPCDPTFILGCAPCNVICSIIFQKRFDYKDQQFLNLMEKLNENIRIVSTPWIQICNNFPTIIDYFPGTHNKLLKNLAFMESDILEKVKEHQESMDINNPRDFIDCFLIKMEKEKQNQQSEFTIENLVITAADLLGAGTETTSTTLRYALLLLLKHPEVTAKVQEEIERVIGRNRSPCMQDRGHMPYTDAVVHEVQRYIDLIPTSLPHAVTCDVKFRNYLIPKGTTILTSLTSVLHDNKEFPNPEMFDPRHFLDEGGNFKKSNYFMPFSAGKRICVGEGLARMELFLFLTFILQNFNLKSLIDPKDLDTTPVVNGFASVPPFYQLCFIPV

Cytochrome P450 2D6 = Cytochrome P450 2D6 (Homo sapiens, UniProt P10635); assay: Inhibition of human recombinant CYP2D6; format: ADME
[17] = Volume of distribution at steady state in Sprague-Dawley rat at 2 umol/kg, iv or 4 umol/kg, po; format: ADME, organism-based; settings: in vivo
[18] = Oral bioavailability in Sprague-Dawley rat at 4 umol/kg; format: ADME, organism-based; settings: in vivo
[19] = Volume of distribution at steady state in beagle dog at 1 umol/kg, iv or 2 umol/kg, po; format: ADME, organism-based, Canis lupus familiaris; settings: in vivo
[20] = Oral bioavailability in beagle dog at 2 umol/kg; format: ADME, organism-based, Canis lupus familiaris; settings: in vivo
[21] = biological target: T2, Secretory phospholipase A2 (Homo sapiens); assay: Inhibition of sPLA2 in human plasma at 25 uM using 1-Hexadecanoyl-2-(1-pyrenedecanoyl)-sn-glycero-3-phosphomethanol as substrate preincubated for 10 mins followed by substrate addition measured after 90 mins by fluorescence assay; format: cell-free
[22] = AUC (0 to infinity) in mouse at 50 umol/kg, po; format: ADME; design: dose 50 umol/kg, route oral, time infinity; settings: in vivo
[23] = Volume of distribution at steady state in mouse at 10 umol/kg, iv or 50 umol/kg, po; format: ADME, organism-based; settings: in vivo
[24] = Oral bioavailability in mouse at 50 umol/kg; format: ADME, organism-based; settings: in vivo
[25] = AUC (0 to infinity) in Sprague-Dawley rat at 8 umol/kg, po; format: ADME; design: dose 8 umol/kg, time infinity, route oral; settings: in vivo
[26] = Volume of distribution at steady state in Sprague-Dawley rat at 2 umol/kg, iv or 8 umol/kg, po; format: ADME, organism-based; settings: in vivo
[27] = Oral bioavailability in Sprague-Dawley rat at 8 umol/kg; format: ADME, organism-based; settings: in vivo
[28] = AUC (0 to infinity) in beagle dog at 3 umol/kg, po; format: ADME, Canis lupus familiaris; design: dose 3 umol/kg, route oral, time infinity; settings: in vivo
[29] = Volume of distribution at steady state in beagle dog at 1 umol/kg, iv or 3 umol/kg, po; format: ADME, organism-based, Canis lupus familiaris; settings: in vivo
[30] = Oral bioavailability in beagle dog at 3 umol/kg; format: ADME, organism-based, Canis lupus familiaris; settings: in vivo
[31] = AUC (0 to infinity) in cynomolgus monkey at 15.8 umol/kg, po; format: ADME, Macaca fascicularis; design: dose 15.8 umol/kg, route oral, time infinity; settings: in vivo
[32] = Volume of distribution at steady state in cynomolgus monkey at 5 umol/kg, iv or 15.8 umol/kg, po; format: ADME, organism-based, Macaca fascicularis; settings: in vivo
[33] = Oral bioavailability in cynomolgus monkey at 15.8 umol/kg; format: ADME, organism-based, Macaca fascicularis; settings: in vivo
[34] = biological target: Secretory phospholipase A2; assay: Inhibition of sPLA2 in human HepG2 cells; format: cell-based
[35] = biological target: Secretory phospholipase A2; assay: Inhibition of sPLA2 in atherosclerotic plaque from coronary artery disease patient; format: protein assay, Homo sapiens
Macaca fascicularis = species: Macaca fascicularis; assay: Inhibition of sPLA2 in cynomolgus monkey plasma using 1-Hexadecanoyl-2-(1-pyrenedecanoyl)-sn-glycero-3-phosphomethanol as substrate preincubated for 10 mins followed by substrate addition measured after 90 mins by fluorescence assay; format: cell-free
Cynomolgus monkey = assay: In vivo inhibition of sPLA2 in po dosed cynomolgus monkey plasma measured up to 24 hrs; format: functional, Macaca fascicularis
HepG2 = assay: Inhibition of sPLA2-2A production in human HepG2 cells; format: functional, cell-based

CCC(Cc1cccc(-c2cc(Cc3ccccc3)ccc2C(N)=O)c1)C(=O)O (centres undefined)
pIC50 [1]: 7.68 | fIC50 [2]: 0.0008 µM | pIC50 [3]: 7.15 | pIC50 [4]: 6.37 | CLint [5]: 25 µL/min/1e6 cells

CC(Cc1cccc(-c2cc(Cc3ccccc3)ccc2C(N)=O)c1)C(=O)O (centres undefined)
pIC50 [1]: 7.96 | fIC50 [2]: 0.001 µM | pIC50 [3]: 7.15 | pIC50 [4]: 6.12 | CLint [5]: 9.6 µL/min/1e6 cells | inhibition (INH) [6]: Not Active

NC(=O)c1ccc(Cc2ccccc2)cc1-c1cccc(OCC(=O)O)c1
pIC50 [1]: 6.72 | pIC50 [4]: 5.43

NC(=O)c1ccc(Cc2ccccc2)cc1
inhibition [7]: Dose-dependent effect | pIC50 [1]: 4.62 | fIC50 [2]: 0.9 µM | Fu [8]: 1.8% | pIC50 [4]: 5.66 | inhibition (Homo sapiens): inactive

NC(=O)c1ccc(Cc2ccccc2)cc1-c1cccc(CCC(=O)O)c1
pIC50 [1]: 7.92 | fIC50 [2]: 0.007 µM | pIC50 [3]: 6.44 | pIC50 [4]: 6.55 | solubility kinetic at 24 h [9]: 98 µM (≈ 35.2 µg/mL) | Papp [10]: 40.1 ×10⁻⁶ cm/s | CLint [5]: 5.2 µL/min/1e6 cells | pIC50 [11]: < 4.48 | pIC50 [12]: < 4.48 | pIC50 [13]: < 4.48 | pIC50 [14]: < 4.48 | pIC50 [15]: < 4.48 | pIC50 [16]: < 4.48 | pIC50 (Cytochrome P450 1A2): < 4.70 | pIC50 (Cytochrome P450 2C8): < 4.70 | pIC50 (Cytochrome P450 3A4): < 4.70 | pIC50 (Cytochrome P450 2C9): < 4.70 | pIC50 (Cytochrome P450 2C19): < 4.70 | pIC50 (Cytochrome P450 2D6): < 4.70 | Vdss [17]: 0.22 L/kg | F [18]: 81% | Vdss [19]: 0.26 L/kg | F [20]: 82%

NC(=O)c1ccc(Cc2ccccc2)cc1-c1cccc(C(=O)O)c1
pIC50 [1]: 6.04 | pIC50 [3]: < 5.00 | inhibition [21]: inactive

NC(=O)c1ccc(Cc2ccccc2)cc1-c1cccc(CCCC(=O)O)c1
pIC50 [1]: 6.96 | fIC50 [2]: 0.03 µM | pIC50 [3]: 5.39 | pIC50 [4]: 5.27

C[C@@H](Cc1cccc(-c2cc(Cc3ccccc3)ccc2C(N)=O)c1)C(=O)O
pIC50 [1]: 7.42 | pIC50 [3]: 5.92 | pIC50 [4]: 5.42 | CLint [5]: 9.3 µL/min/1e6 cells

C[C@H](Cc1cccc(-c2cc(Cc3ccccc3)ccc2C(N)=O)c1)C(=O)O
pIC50 [1]: 8.00 | fIC50 [2]: 0.0001 µM | pIC50 [3]: 7.40 | pIC50 [4]: 6.40 | CLint [5]: 12 µL/min/1e6 cells | inhibition (INH) [6]: Not Active | AUC(0-inf) [22]: 69.7 µM·h | Vdss [23]: 2.8 L/kg | F [24]: 76.3% | AUC(0-inf) [25]: 70 µM·h | Vdss [26]: 0.21 L/kg | F [27]: 84% | AUC(0-inf) [28]: 284 µM·h | Vdss [29]: 0.15 L/kg | F [30]: 91% | AUC(0-inf) [31]: 71.3 µM·h | Vdss [32]: 1.1 L/kg | F [33]: 81% | IC50 [34]: < 14 nM | IC50 [35]: 56 nM | fIC50 (Macaca fascicularis): 1 nM | fIC80 (Cynomolgus monkey): 13 nM | inhibition (Cynomolgus monkey; Macaca fascicularis): Dose-dependent effect | pIC50 (HepG2): 6.75

CCc1c(C(=O)C(N)=O)c2c(OCC(=O)O)cccc2n1Cc1ccccc1 [VARESPLADIB]
fIC50 [2]: 0.008 µM | Fu [8]: 12.5% | pIC50 [3]: 6.92

NC(=O)c1ccc(Cc2ccccc2)cc1-c1cccc(CC(=O)O)c1
pIC50 [1]: 7.15 | fIC50 [2]: 0.04 µM | pIC50 [3]: 5.85 | pIC50 [4]: 5.96

From ChEMBL document CHEMBL4428134, “Discovery of AZD2716: A Novel Secreted Phospholipase A2 (sPLA2) Inhibitor for the Treatment of Coronary Artery Disease” (ACS Med Chem Lett, 2016)
